Values of other authors in patent US11229596B2, “Preservative free pharmaceutical ophthalmic compositions” (PHARMATHEN S.A., priority 2016, dated 2022).
Counter-ions that a name gives are not always drawn. Like-named read-outs stand apart in the source and are kept apart here.

How the values were obtained:
intraocular pressure = conditions: in man

| SMILES | Duration of pressure reduction (intraocular pressure) | Start of reduction of the intraocular pressure after administration (intraocular pressure) | Time to maximum effect on intraocular pressure (intraocular pressure) | Solubility (in acetonitrile) | Solubility (in ethanol) | Solubility (in water) | Solubility (in chloroform) | Solubility (in cyclohexane) | Solubility (in ether) | Solubility (in methanol) | Solubility (in propylene glycol) |
| --- | --- | --- | --- | --- | --- | --- | --- | --- | --- | --- | --- |
| CC(C)OC(=O)CCC/C=C\C[C@@H]1[C@@H](CC[C@@H](O)CCc2ccccc2)[C@H](O)C[C@@H]1O [Latanoprost] | at least 24 hours | three to four | eight to twelve | very soluble | freely soluble | practically insoluble |  |  |  |  |  |
| CC(C)(C)NC[C@H](O)COc1nsnc1N1CCOCC1 [Timolol maleate] |  |  |  |  | soluble | soluble | sparingly soluble | insoluble | insoluble | soluble | sparingly soluble |
